From article PMC10523748, “Cytotoxicity, acute and sub-chronic toxicities of the leaves of Bauhinia thonningii (Schumach.) Milne-Redh. (Caesalpiniaceae)” (BMC Complementary Medicine and Therapies, 2023)

Columns and labels:
normal AML12 hepatocytes = assay: RRA cytotoxicity, normal AML12 hepatocytes; conditions: Mus musculus, AML12, 72 h
[1] = system: HepG2 hepatocarcinoma cells; assay: RRA cytotoxicity, HepG2; conditions: Homo sapiens, HepG2, 72 h
[2] = system: CEM/ADR5000 leukemia cells (P-gp-overexpressing); assay: RRA cytotoxicity, CEM/ADR5000
MDA-MB-231-BCRP cells = assay: RRA cytotoxicity, MDA-MB-231-BCRP
CEM/ADR5000 cells = system: CEM/ADR5000 cells; design: method as in PMID 12064912; conditions: cited from earlier work
U87MG glioblastoma cells = assay: RRA cytotoxicity, U87MG; conditions: Homo sapiens, U-87 MG, 72 h
HCT116 p53^−/− cells = assay: RRA cytotoxicity, HCT116 p53^−/−; conditions: Homo sapiens, HCT-116, 72 h
[3] = system: MDA-MB-231-pcDNA breast adenocarcinoma cells; assay: RRA cytotoxicity, MDA-MB-231-pcDNA; conditions: Homo sapiens, 72 h
CCRF-CEM leukemia cells = assay: Resazurin reduction assay (RRA) cytotoxicity, CCRF-CEM; conditions: 72 h
[4] = system: HCT116 p53^+/+ colon adenocarcinoma cells; assay: RRA cytotoxicity, HCT116 p53^+/+; conditions: Homo sapiens, HCT-116, 72 h
U87MG.ΔEGFR cells = assay: RRA cytotoxicity, U87MG.ΔEGFR; conditions: Homo sapiens, 72 h
CCRF-CEM cells = system: CCRF-CEM cells; design: method as in PMID 12064912; conditions: cited from earlier work
[5] = system: 9 tested cancer cell lines; assay: RRA cytotoxicity, whole panel of cancer cell lines; conditions: 9 cancer cell lines, up to 50 µM

## O=c1c(O)c(-c2ccc(O)c(O)c2)oc2cc(O)cc(O)c12 [Compound 4, quercetin]
Normal AML12 hepatocytes
  IC50: > 50 µM
[1]
  IC50: > 50 µM
[2]; Homo sapiens, ADR5000, 72 h
  IC50: > 50 µM
[2]; IC50 CEM/ADR5000 versus CCRF-CEM
  Degree of resistance: > 1.83
MDA-MB-231-BCRP cells; Homo sapiens, MDA-MB-231/BCRP, 72 h
  IC50: > 50 µM
MDA-MB-231-BCRP cells; IC50 MDA-MB-231-BCRP versus MDA-MB-231-pcDNA
  Degree of resistance: > 1.18
CEM/ADR5000 cells
  IC50: 101 µM
U87MG glioblastoma cells
  IC50: > 50 µM
HCT116 p53^−/− cells
  IC50: > 50 µM
[3]
  IC50: 42.3 ± 3.29 µM
CCRF-CEM leukemia cells
  IC50: 27.3 ± 3.12 µM
CCRF-CEM leukemia cells; Homo sapiens
  IC50: 27 µM
[4]
  IC50: > 50 µM
U87MG.ΔEGFR cells
  IC50: > 50 µM
CCRF-CEM cells
  IC50: 25 µM
[5]
  Cytotoxic activity in the panel: selectively active
